From patent US20090156517A1, “STABLE PHARMACEUTICAL COMPOSITIONS OF AMINOGLYCOSIDE ANTIBIOTICS, ION-CHELATING AGENTS, AND BUFFERS” (priority 2006, published 2009)
“Also recorded” adds a separate entry of the source.

Assay: HIAC light obscuration test (USP 788), aggregate particle content
Format: physicochemical
Conditions: composition prepared as a liquid solution
Experimental: Light obscuration testing was performed for solution preparations prepared with some of the compositions described in the examples according to the method described in the United States Pharmacopeia (USP 788) using HIAC-3000 light obscuration detector. Particle content is denoted by the number of particles per milliliter of solution. The value is an average of two measurements. Samples were tested at 1 hour and at 20 hours.

O=C(O)CN(CCN(CC(=O)O)CC(=O)O)CC(=O)O [EDTA, ethylenediamine tetraacetic acid]
Effect on aggregate particle formation in the solution preparations: significantly reduce aggregate particle formation; also recorded: effective in inhibiting formation of aggregate particles
